Reference: ChEMBL document CHEMBL5390219, “Benzyl stapled modification and anticancer activity of antimicrobial peptide A4K14-Citropin 1.1” (Bioorg Med Chem Lett, 2023)
Activity calls are given as the source filed them. The rule behind the calls is not given here. *1 amine or outer side, *2 acyl side, *3 side chain or, on linkers, in order; H or OH if unused. Where a SMILES comes first, the peptide text is derived from it. Bridges are numbered along the chain shown (N, C = ends). Biphenyl(4,4'-CH2)2 = c1cc(-c2ccc(C[*:2])cc2)ccc1C[*:1]; mXylylene = c1cc(C[*:1])cc(C[*:2])c1; oXylylene = c1ccc(C[*:2])c(C[*:1])c1; pXylylene = c1cc(C[*:2])ccc1C[*:1]

What was measured:
MCF7 [1] = experiment: Anti-cancer activity against human MCF7 assessed as cell viability incubated for 48 hrs by CCK-8 assay; assay type: functional, cell-based; details: MCF7, 48 h
U-87 MG = experiment: Anti-cancer activity against human U-87 MG assessed as cell viability incubated for 48 hrs by CCK-8 assay; assay type: functional, cell-based, U-87MG ATCC
HCT-116 = experiment: Anti-cancer activity against human HCT-116 assessed as cell viability incubated for 48 hrs by CCK-8 assay; assay type: functional, cell-based; details: HCT-116, 48 h
MCF7 [2] = experiment: Inhibition of cell migration in human MCF7 cells at 5 uM incubated for 36 hrs by crystal violet staining based microscopy analysis; assay type: functional
[3] = Stability of a compound in human serum assessed as half life at 91 mg/mL incubated for 0 to 144 hrs by HPLC-UV analysis; assay type: ADME, cell-free; details: time 0-144 hrs
MCF7 [4] = experiment: Induction of cell death in human MCF7 cells at 10 uM incubated for 24 hrs by calcein-AM/PI staining based analysis; assay type: functional
MCF7 [5] = experiment: Induction of apoptosis in human MCF7 cells assessed as viable cells at 5 uM incubated for 24 hrs by Annexin V-FITC/PI staining based flow cytometry analysis (reference value: 93.51%); assay type: functional; details: read-out: Activity
MCF7 [6] = experiment: Induction of apoptosis in human MCF7 cells assessed as early apoptotic cells at 5 uM incubated for 24 hrs by Annexin V-FITC/PI staining based flow cytometry analysis (reference value: 1.01%); assay type: functional
MCF7 [7] = experiment: Induction of apoptosis in human MCF7 cells assessed as late apoptotic cells at 5 uM incubated for 24 hrs by Annexin V-FITC/PI staining based flow cytometry analysis (reference value: 3.54%); assay type: functional
MCF7 [8] = experiment: Induction of apoptosis in human MCF7 cells assessed as necrotic cells at 5 uM incubated for 24 hrs by Annexin V-FITC/PI staining based flow cytometry analysis (reference value: 1.94%); assay type: functional
MCF7 [9] = experiment: Induction of cell death in human MCF7 cells assessed as reduction in number of viable cells at 10 uM incubated for 24 hrs by calcein-AM/PI staining based analysis; assay type: functional
MCF7 [10] = experiment: Inhibition of cell migration in human MCF7 cells at 5 uM incubated for 24 hrs by scratch wound healing assay; assay type: functional, cell-based

| Molecule | IC50 (MCF7 [1]) [µM] | IC50 (U-87 MG) [µM] | IC50 (HCT-116) [µM] | Activity (MCF7 [2]) | half-life at 91 mg/mL [3] [h] | Activity (MCF7 [4]) | viability at 5 µM (MCF7 [5]) [%] | Activity (MCF7 [6]) [%] | Activity (MCF7 [7]) [%] | Activity (MCF7 [8]) [%] | Activity (MCF7 [9]) | Activity (MCF7 [10]) |
| --- | --- | --- | --- | --- | --- | --- | --- | --- | --- | --- | --- | --- |
| CC[C@H](C)[C@H](NC(=O)[C@@H](NC(=O)[C@H](C)NC(=O)[C@H](Cc1ccccc1)NC(=O)[C@H](CC(C)C)NC(=O)CNC(C)=O)C(C)C)C(=O)N[C@@H](CCCCN)C(=O)N[C@@H](CCCCN)C(=O)N[C@H]1CSCc2ccc(cc2)CSC[C@@H](C(=O)N[C@@H](CCCCN)C(=O)NCC(=O)N[C@@H](CC(C)C)C(N)=O)NC(=O)[C@H](C(C)C)NC(=O)[C@H](CO)NC(=O)[C@H](C)NC1=O (Ac-GLFAVIKKCASVCKGL-NH2; linker 9-13 via pXylylene) | 32.1 | 25.9 | 114 | – | – | – | – | – | – | – | – | – |
| Ac-GLFAVIKKVASVIKGL-NH2 | 14 | 14.4 | 16.2 | inactive | 6.81 | Active | 77.5 | 2.44 | 11.45 | 8.31 | – | – |
| CC[C@H](C)[C@H](NC(=O)[C@@H](NC(=O)[C@H](C)NC(=O)[C@H](Cc1ccccc1)NC(=O)[C@H](CC(C)C)NC(=O)CNC(C)=O)C(C)C)C(=O)N[C@@H](CCCCN)C(=O)N[C@@H](CCCCN)C(=O)N[C@H]1CSCc2ccccc2CSC[C@@H](C(=O)N[C@@H](CCCCN)C(=O)NCC(=O)N[C@@H](CC(C)C)C(N)=O)NC(=O)[C@H](C(C)C)NC(=O)[C@H](CO)NC(=O)[C@H](C)NC1=O (Ac-GLFAVIKKCASVCKGL-NH2; linker 9-13 via oXylylene) | 8.68 | 8.42 | 7.94 | – | – | – | – | – | – | – | – | – |
| CC[C@H](C)[C@H](NC(=O)[C@@H](NC(=O)[C@H](CO)NC(=O)[C@H](C)NC(=O)[C@@H](NC(=O)[C@H](CCCCN)NC(=O)[C@H](CCCCN)NC(=O)[C@@H]1CSCc2ccc(cc2)CSC[C@H](NC(=O)CNC(C)=O)C(=O)N[C@@H](Cc2ccccc2)C(=O)N[C@@H](C)C(=O)N[C@@H](C(C)C)C(=O)N1)C(C)C)C(C)C)C(=O)N[C@@H](CCCCN)C(=O)NCC(=O)N[C@@H](CC(C)C)C(N)=O (Ac-GCFAVCKKVASVIKGL-NH2; linker 2-6 via pXylylene) | 54.1 | 53 | 230 | – | – | – | – | – | – | – | – | – |
| CC[C@H](C)[C@H](NC(=O)[C@@H](NC(=O)[C@H](CO)NC(=O)[C@H](C)NC(=O)[C@@H](NC(=O)[C@H](CCCCN)NC(=O)[C@H](CCCCN)NC(=O)[C@@H]1CSCc2cccc(c2)CSC[C@H](NC(=O)CNC(C)=O)C(=O)N[C@@H](Cc2ccccc2)C(=O)N[C@@H](C)C(=O)N[C@@H](C(C)C)C(=O)N1)C(C)C)C(C)C)C(=O)N[C@@H](CCCCN)C(=O)NCC(=O)N[C@@H](CC(C)C)C(N)=O (Ac-GCFAVCKKVASVIKGL-NH2; linker 2-6 via mXylylene) | 54.7 | 57.8 | 106 | – | – | – | – | – | – | – | – | – |
| CC[C@H](C)[C@H](NC(=O)[C@@H](NC(=O)[C@H](CO)NC(=O)[C@@H]1CSCc2ccc(cc2)CSC[C@H](NC(=O)[C@@H](NC(=O)[C@H](C)NC(=O)[C@H](Cc2ccccc2)NC(=O)[C@H](CC(C)C)NC(=O)CNC(C)=O)C(C)C)C(=O)N[C@@H](CCCCN)C(=O)N[C@@H](CCCCN)C(=O)N[C@@H](C(C)C)C(=O)N1)C(C)C)C(=O)N[C@@H](CCCCN)C(=O)NCC(=O)N[C@@H](CC(C)C)C(N)=O (Ac-GLFAVCKKVCSVIKGL-NH2; linker 6-10 via pXylylene) | 15.7 | 15.6 | 13.4 | – | – | – | – | – | – | – | – | – |
| CC[C@H](C)[C@H](NC(=O)[C@@H](NC(=O)[C@H](C)NC(=O)[C@H](Cc1ccccc1)NC(=O)[C@H](CC(C)C)NC(=O)CNC(C)=O)C(C)C)C(=O)N[C@@H](CCCCN)C(=O)N[C@@H](CCCCN)C(=O)N[C@H]1CSCc2cccc(c2)CSC[C@@H](C(=O)N[C@@H](CCCCN)C(=O)NCC(=O)N[C@@H](CC(C)C)C(N)=O)NC(=O)[C@H](C(C)C)NC(=O)[C@H](CO)NC(=O)[C@H](C)NC1=O (Ac-GLFAVIKKCASVCKGL-NH2; linker 9-13 via mXylylene) | 8.34 | 10.7 | 11 | – | – | – | – | – | – | – | – | – |
| CC[C@H](C)[C@@H]1NC(=O)[C@@H](NC(=O)[C@H](C)NC(=O)[C@H](Cc2ccccc2)NC(=O)[C@H](CC(C)C)NC(=O)CNC(C)=O)CSCc2cccc(c2)CSC[C@@H](C(=O)N[C@@H](C)C(=O)N[C@@H](CO)C(=O)N[C@H](C(=O)N[C@H](C(=O)N[C@@H](CCCCN)C(=O)NCC(=O)N[C@@H](CC(C)C)C(N)=O)[C@@H](C)CC)C(C)C)NC(=O)[C@H](CCCCN)NC(=O)[C@H](CCCCN)NC1=O (Ac-GLFACIKKCASVIKGL-NH2; linker 5-9 via mXylylene) | 9.25 | 11.8 | 8.23 | – | – | – | – | – | – | – | – | – |
| CC[C@H](C)[C@H](NC(=O)[C@@H](NC(=O)[C@H](CO)NC(=O)[C@@H]1CSCc2cccc(c2)CSC[C@H](NC(=O)[C@@H](NC(=O)[C@H](C)NC(=O)[C@H](Cc2ccccc2)NC(=O)[C@H](CC(C)C)NC(=O)CNC(C)=O)C(C)C)C(=O)N[C@@H](CCCCN)C(=O)N[C@@H](CCCCN)C(=O)N[C@@H](C(C)C)C(=O)N1)C(C)C)C(=O)N[C@@H](CCCCN)C(=O)NCC(=O)N[C@@H](CC(C)C)C(N)=O (Ac-GLFAVCKKVCSVIKGL-NH2; linker 6-10 via mXylylene) | 13.6 | 14.3 | 10.6 | – | – | – | – | – | – | – | – | – |
| CC(=O)NCC(=O)N[C@@H](CC(C)C)C(=O)N[C@@H](Cc1ccccc1)C(=O)N[C@@H](C)C(=O)N[C@H](C(=O)N[C@H]1CSCc2ccc(cc2)-c2ccc(cc2)CSC[C@@H](C(=O)N[C@@H](CCCCN)C(=O)NCC(=O)N[C@@H](CC(C)C)C(N)=O)NC(=O)[C@H](C(C)C)NC(=O)[C@H](CO)NC(=O)[C@H](C)NC(=O)[C@H](C(C)C)NC(=O)[C@H](CCCCN)NC(=O)[C@H](CCCCN)NC1=O)C(C)C (Ac-GLFAVCKKVASVCKGL-NH2; linker 6-13 via Biphenyl(4,4'-CH2)2) | 7.47 | 9.2 | 7.44 | – | – | – | – | – | – | – | – | – |
| CC[C@H](C)[C@@H]1NC(=O)[C@@H](NC(=O)[C@H](C)NC(=O)[C@H](Cc2ccccc2)NC(=O)[C@H](CC(C)C)NC(=O)CNC(C)=O)CSCc2ccccc2CSC[C@@H](C(=O)N[C@@H](C)C(=O)N[C@@H](CO)C(=O)N[C@H](C(=O)N[C@H](C(=O)N[C@@H](CCCCN)C(=O)NCC(=O)N[C@@H](CC(C)C)C(N)=O)[C@@H](C)CC)C(C)C)NC(=O)[C@H](CCCCN)NC(=O)[C@H](CCCCN)NC1=O (Ac-GLFACIKKCASVIKGL-NH2; linker 5-9 via oXylylene) | 2.75 | 2.8 | 5.04 | Active | 143 | – | 1.1 | 22.39 | 75.52 | 1.35 | Active | Active |
| CC[C@H](C)[C@H](NC(=O)[C@@H](NC(=O)[C@H](CO)NC(=O)[C@@H]1CSCc2ccccc2CSC[C@H](NC(=O)[C@@H](NC(=O)[C@H](C)NC(=O)[C@H](Cc2ccccc2)NC(=O)[C@H](CC(C)C)NC(=O)CNC(C)=O)C(C)C)C(=O)N[C@@H](CCCCN)C(=O)N[C@@H](CCCCN)C(=O)N[C@@H](C(C)C)C(=O)N1)C(C)C)C(=O)N[C@@H](CCCCN)C(=O)NCC(=O)N[C@@H](CC(C)C)C(N)=O (Ac-GLFAVCKKVCSVIKGL-NH2; linker 6-10 via oXylylene) | 6.58 | 6.27 | 5.86 | Active | 143 | – | 43.2 | 15.92 | 37.02 | 3.9 | Active | Active |
| CC[C@H](C)[C@@H]1NC(=O)[C@@H](NC(=O)[C@H](C)NC(=O)[C@H](Cc2ccccc2)NC(=O)[C@H](CC(C)C)NC(=O)CNC(C)=O)CSCc2ccc(cc2)CSC[C@@H](C(=O)N[C@@H](C)C(=O)N[C@@H](CO)C(=O)N[C@H](C(=O)N[C@H](C(=O)N[C@@H](CCCCN)C(=O)NCC(=O)N[C@@H](CC(C)C)C(N)=O)[C@@H](C)CC)C(C)C)NC(=O)[C@H](CCCCN)NC(=O)[C@H](CCCCN)NC1=O (Ac-GLFACIKKCASVIKGL-NH2; linker 5-9 via pXylylene) | 11.8 | 12.8 | 12.9 | – | – | – | – | – | – | – | – | – |
| CC[C@H](C)[C@H](NC(=O)[C@@H](NC(=O)[C@H](CO)NC(=O)[C@H](C)NC(=O)[C@@H](NC(=O)[C@H](CCCCN)NC(=O)[C@H](CCCCN)NC(=O)[C@@H]1CSCc2ccccc2CSC[C@H](NC(=O)CNC(C)=O)C(=O)N[C@@H](Cc2ccccc2)C(=O)N[C@@H](C)C(=O)N[C@@H](C(C)C)C(=O)N1)C(C)C)C(C)C)C(=O)N[C@@H](CCCCN)C(=O)NCC(=O)N[C@@H](CC(C)C)C(N)=O (Ac-GCFAVCKKVASVIKGL-NH2; linker 2-6 via oXylylene) | 12.5 | 11.4 | 13.9 | – | – | – | – | – | – | – | – | – |
